Test system: 192522-019-R-J2-PDC complex tumor spheroid viability
Test: Anticancer human tumor 192522-019-R-J2-PDC patient-derived colon adenocarcinoma cell line growth inhibition [POLQ]
Conditions: for IC50: curve of first compound; for viability, T/C: stronger effect = lower value
Protocol: Multicellular complex tumor spheroid response to Polymerase (POL) inhibitors (novobiocin, ART-558, RP6685) in combination with a variety of drugs and investigational agents in selected tumor cell lines
The POL inhibitors (novobiocin, ART-558, and RP6685) were evaluated both individually and in combination with standard of care and investigational anticancer small molecules within a complex spheroid model of solid tumors. . Complex spheroids include a stromal component modeled by human endothelial cells (HUVEC) and fibroblasts modeled by human mesenchymal stem cells (MSCs). The concentration ranges selected for each drug and investigational agent were based upon clinically achievable concentrations if the clinical Cmax of the agent was known.
Compounds. The drugs and investigational agents: novobiocin (NSC847541), ART-558 (NSC835418), RP-6685 (NSC848927), peposertib (NSC802822), ceralasertib (NSC780249), elimusertib (NSC800525), camonsertib (NSC841442), AZD-1390 (NSC803789), olaparib (NSC753686), talazoparib (NSC767125), rucaparib (NSC756644), sotorasib (NSC818433), MRTX-1133 (NSC836407), SN-38 (NSC673596), topotecan (NSC609699), epotoside (NSC141540), doxorubicin (NSC123127), gemcitabine (NSC613327), 5-fluorouracil (NSC19893), paclitaxel (NSC125973), vemurafenib (NSC761431), MSA-2 (NSC828583), SN-011 (NSC837082), adavosertib (NSC754352), prexasertib (NSC758257), carboplatin (NSC241240) and oxaliplatin (NSC266046), were obtained from the National Cancer Institute (NCI) Developmental Therapeutics Program Chemical Repository (21). The FDA-approved anticancer drug set is available from the Developmental Therapeutics Program at https://dtp.cancer.gov/organization/dscb/obtaining/. […] The stock solutions were prepared in dimethyl sulfoxide (DMSO, Sigma-Aldrich, St. Louis, MO, cat. D2650), except for the platinum compounds which were prepared in saline (Quality Biological, Gaithersburg, MD, cat. 114-055-101), at 800-fold the tested concentration and stored at -70 degrees C prior to their use. All drugs and investigational agents were tested over a range starting from a high concentration at or near the clinical Cmax and decreasing in half-log increments. If the clinical Cmax for an agent had not been determined, the highest concentration tested was 10 microM, except for SN-38, which was tested at a high concentration of 1 microM.
Cell Culture. All cells were maintained in an incubator at 37 degrees C and 5% CO2 with 95% humidity. The PDC lines were cultured according to standard operating procedures established by the NCI PDMR (https://pdmr.cancer.gov). Table 3 of the manuscript, lists the cell lines along with the number of the three cell types plated to form the mct-spheroids and media for tumor cell growth. After thawing, all PDC lines, except 997537-175-T-J1-PDC and 415267-285-R-J2-PDC, were cultured in Matrigel-coated flasks prepared with a working solution of 1X Ham's F-12 nutrient mix, without supplementation (Thermo Fisher Scientific, cat. 11765054), 100 U/mL penicillin-streptomycin (Thermo Fisher Scientific, cat. 15140122), and 2.5% Matrigel (Corning Inc., Corning, NY, cat. 354248) for the first three passages. The two PDC lines 997537-175-T-J1-PDC and 415267-285-R-J2-PDC were cultured on uncoated flasks. The 857933-349-R-J2-PDC line was cultured in 6C/Colon 1B media containing advanced DMEM/F-12 (Thermo Fisher Scientific, cat. 12634028), 10 mM HEPES (Thermo Fisher Scientific, cat. 15630080), 1X GlutaMAX supplement (Thermo Fisher Scientific, cat. 35050061), 0.1 mg/mL primocin (InvivoGen, San Diego, CA, cat. ant-pm-2), 10% defined fetal bovine serum, heat inactivated (HyClone Laboratories Inc., Logan, UT, cat. SH30070.03HI), 50% L-WRN conditioned media (ATCC, cat. CRL-3276), 1.25 mM N-Acetyl-L-cysteine (Sigma-Aldrich, cat. A9165), 10 mM nicotinamide (Sigma-Aldrich, cat. N0636), 1X B-27 supplement (Thermo Fisher Scientific, cat. 17504044), 1X N-2 supplement (Thermo Fisher Scientific, cat. […]
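Further: spheroids exposed to drugs for seven days before reading.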
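Wherever viability, T/C is given: 100% = DMSO vehicle control viability in luminescence.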

CC1COCCN1c1cc(C2(O)CC3CCC(C2)O3)c2cnn(-c3ccn[nH]3)c2n1 (configuration not stated) + Nc1ccc(C#CCN(C(=O)Cc2ncc(C(F)(F)F)cc2C(F)(F)F)c2ccc(F)cc2)nn1
IC50 (second compound 0.0316 µM): 259 nM
IC50 (second compound 0.1 µM): 265 nM
IC50 (second compound 0.316 µM): 263 nM
IC50 (second compound 1 µM): 276 nM
IC50 (second compound 3.16 µM): 331 nM
IC50 (second compound 10 µM): 284 nM
viability, T/C (second compound 0.0316 µM, first compound 0.0316 µM): 95.5%
viability, T/C (second compound 0.0316 µM, first compound 0.1 µM): 76.8%
viability, T/C (second compound 0.0316 µM, first compound 0.316 µM): 44.7%
viability, T/C (second compound 0.0316 µM, first compound 1 µM): 34.4%
viability, T/C (second compound 0.0316 µM, first compound 3.16 µM): 44%
viability, T/C (second compound 0.0316 µM, first compound 10 µM): 50.1%
viability, T/C (second compound 0.1 µM, first compound 0.0316 µM): 99.2%
viability, T/C (second compound 0.1 µM, first compound 0.1 µM): 85.3%
viability, T/C (second compound 0.1 µM, first compound 0.316 µM): 42.2%
viability, T/C (second compound 0.1 µM, first compound 1 µM): 37.6%
viability, T/C (second compound 0.1 µM, first compound 3.16 µM): 41.3%
viability, T/C (second compound 0.1 µM, first compound 10 µM): 53%
viability, T/C (second compound 0.316 µM, first compound 0.0316 µM): 97.2%
viability, T/C (second compound 0.316 µM, first compound 0.1 µM): 80.5%
viability, T/C (second compound 0.316 µM, first compound 0.316 µM): 44.3%
viability, T/C (second compound 0.316 µM, first compound 1 µM): 35.8%
viability, T/C (second compound 0.316 µM, first compound 3.16 µM): 44.7%
viability, T/C (second compound 0.316 µM, first compound 10 µM): 48.6%
viability, T/C (second compound 1 µM, first compound 0.0316 µM): 97.1%
viability, T/C (second compound 1 µM, first compound 0.1 µM): 81.8%
viability, T/C (second compound 1 µM, first compound 0.316 µM): 45.9%
viability, T/C (second compound 1 µM, first compound 1 µM): 36.9%
viability, T/C (second compound 1 µM, first compound 3.16 µM): 45.1%
viability, T/C (second compound 1 µM, first compound 10 µM): 51.8%
viability, T/C (second compound 3.16 µM, first compound 0.0316 µM): 97.6%
viability, T/C (second compound 3.16 µM, first compound 0.1 µM): 82.3%
viability, T/C (second compound 3.16 µM, first compound 0.316 µM): 51.2%
viability, T/C (second compound 3.16 µM, first compound 1 µM): 36.6%
viability, T/C (second compound 3.16 µM, first compound 3.16 µM): 46.6%
viability, T/C (second compound 3.16 µM, first compound 10 µM): 49.6%
viability, T/C (second compound 10 µM, first compound 0.0316 µM): 92.4%
viability, T/C (second compound 10 µM, first compound 0.1 µM): 74.8%
viability, T/C (second compound 10 µM, first compound 0.316 µM): 47.8%
viability, T/C (second compound 10 µM, first compound 1 µM): 36.4%
viability, T/C (second compound 10 µM, first compound 3.16 µM): 51.9%
viability, T/C (second compound 10 µM, first compound 10 µM): 50%

From PubChem BioAssay AID1963850 (Molecular Pharmacology Branch, DTP, NCI, 2024)
